Reference: patent US11566007B2, “Ras inhibitors” (Revolution Medicines, Inc., priority 2019, dated 2023)
Read-outs that look alike come from different tables or passages of the source.

Legend:
KRAS Q61H = KRAS Q61H (Homo sapiens (Human), UniProt P01116+P62937, Q61H); assay: Ras-Raf (BRAF RBD) disruption / FRET / MOA assay, KRAS Q61H; type: biochemical; settings: Ras-Raf disruption/FRET/MOA assay; class symbols; read-out: KRAS Q61H FRET data IC50
Procedure, shortened: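 TR-FRET disruption of nucleotide-loaded Ras binding to BRAF RBD via compound-driven ternary complex with cyclophilin A. Compound as 10-point 3-fold series from 30 μM final, 3 h at 25° C, then anti-His Eu-W1024 (10 nM) and anti-GST allophycocyanin (50 nM) for 1.5 h. IC50 from decreased FRET ratio versus DMSO.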

[1] = test system: NCI-H358 cells (K-Ras G12C); assay: Potency assay: pERK in NCI-H358 cells; type: cell-based, human; settings: Homo sapiens
Procedure, shortened: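 4 h cpd, 37 °C; 10-pt 3-fold series, 10 mM DMSO top stock, duplicates. Readout pERK: AlphaLISA SureFire Ultra or In-Cell Western (IR-800CW secondary, DRAQ5 DNA stain). IC50, 4-PL fit vs log conc.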

KRAS G13D = KRAS G13D (Homo sapiens (Human), UniProt P01116+P62937, G13D); assay: Ras-Raf (BRAF RBD) disruption / FRET / MOA assay, KRAS G13D; type: biochemical; settings: read-out: IC50* KRAS G13D FRET data
KRAS G13D, sequence (P01116-2 other isoform, or with tags, fused parts or gaps G13D): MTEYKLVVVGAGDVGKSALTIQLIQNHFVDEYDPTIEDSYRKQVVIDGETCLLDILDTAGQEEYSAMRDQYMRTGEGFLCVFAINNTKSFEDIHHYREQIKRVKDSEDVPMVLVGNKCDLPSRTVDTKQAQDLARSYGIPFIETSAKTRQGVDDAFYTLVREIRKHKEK
KRAS G13D, sequence (P62937 whole entry): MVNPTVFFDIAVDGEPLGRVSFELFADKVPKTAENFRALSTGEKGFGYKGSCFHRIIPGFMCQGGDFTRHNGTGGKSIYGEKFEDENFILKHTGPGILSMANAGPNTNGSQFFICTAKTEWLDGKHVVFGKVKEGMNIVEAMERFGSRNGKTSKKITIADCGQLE
Procedure, shortened: (§1)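 Ras:RAF disruption was scored as a fall in TR-FRET ratio relative to DMSO. Compound ranged in 3-fold steps over 10 points from 30 μM final; incubation ran 3 h at 25° C, detection antibodies a further 1.5 h. Reported as IC50.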

K-Ras G13C = K-Ras G13C (Homo sapiens (Human), UniProt P01116+P62937, G13C); assay: Ras-Raf (BRAF RBD) disruption / FRET / MOA assay, KRAS G13C; type: biochemical; settings: KRAS G13C; Ras-Raf disruption/FRET/MOA assay; read-out: IC50* KRAS G13C FRET data
K-Ras G13C, sequence (P01116-2 other isoform, or with tags, fused parts or gaps G13C): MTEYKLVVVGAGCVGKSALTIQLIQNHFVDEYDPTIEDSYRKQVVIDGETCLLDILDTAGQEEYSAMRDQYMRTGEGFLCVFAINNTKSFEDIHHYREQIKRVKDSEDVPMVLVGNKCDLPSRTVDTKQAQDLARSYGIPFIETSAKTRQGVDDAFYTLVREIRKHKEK
K-Ras G13C, sequence (P62937 whole entry): as the sequence (P62937 whole entry) above
Procedure, shortened: as §1

NRAS G12C = NRAS G12C (Homo sapiens (Human), UniProt P01111+P62937, G12C); assay: Ras-Raf (BRAF RBD) disruption / FRET / MOA assay, NRAS G12C; type: biochemical; settings: read-out: IC50* NRAS G12C FRET data
NRAS G12C, sequence (P01111 whole entry G12C): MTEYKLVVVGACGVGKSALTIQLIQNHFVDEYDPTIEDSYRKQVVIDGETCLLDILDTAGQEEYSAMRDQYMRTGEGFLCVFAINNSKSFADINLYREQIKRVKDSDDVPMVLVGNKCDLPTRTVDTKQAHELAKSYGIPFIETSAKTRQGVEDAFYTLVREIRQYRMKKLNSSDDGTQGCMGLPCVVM
NRAS G12C, sequence (P62937 whole entry): as the sequence (P62937 whole entry) above
Procedure, shortened: as §1

NRAS Q61K = NRAS Q61K (Homo sapiens (Human), UniProt P01111+P62937, Q61K); assay: Ras-Raf (BRAF RBD) disruption / FRET / MOA assay, NRAS Q61K; type: biochemical; settings: NRAS Q61K; Ras-Raf disruption/FRET/MOA assay; read-out: IC50* NRAS Q61K FRET data
NRAS Q61K, sequence (P01111 whole entry Q61K, canonical isoform): as the sequence (P01111 whole entry G12C) above, with C12G, Q61K counted along it
NRAS Q61K, sequence (P62937 whole entry, canonical isoform): as the sequence (P62937 whole entry) above
Experimental: (§2) The purpose of this biochemical assay is to measure the ability of test compounds to facilitate ternary complex formation between a nucleotide-loaded Ras isoform and cyclophilin A; the resulting ternary complex disrupts binding to a BRAF^RBD construct, inhibiting Ras signaling through a RAF effector.
(§3) […]. Compound is present in plate wells as a 10-point 3-fold dilution series starting at a final concentration of 30 μM. After incubation at 25° C. for 3 hours, a mixture of Anti-His Eu-W1024 and anti-GST allophycocyanin is then added to assay sample wells at final concentrations of 10 nM and 50 nM, respectively, and the reaction incubated for an additional 1.5 hours. […] Compounds that facilitate disruption of a Ras:RAF complex are identified as those eliciting a decrease in the TR-FRET ratio relative to DMSO control wells.
(§4) Note—The following protocol describes a procedure for monitoring disruption of K-Ras G12C (GMP-PNP) binding to BRAF^RBD by a compound of the invention. This protocol may also be executed substituting other Ras proteins or nucleotides.
(§5) The purpose of this biochemical assay was to measure the ability of test compounds to facilitate ternary complex formation between a nucleotide-loaded K-Ras isoform and Cyclophilin A; the resulting ternary complex disrupts binding to a BRAF^RBD construct, inhibiting K-Ras signaling through a RAF effector. Data is reported as IC50 values.
as §3, with “Compound was” for “Compound is”, “allophycocyanin was” for “allophycocyanin is”, “a K-Ras:RAF” for “a Ras:RAF”, “complex were” for “complex are”

KRAS G12V = KRAS G12V (Homo sapiens (Human), UniProt P01116+P62937, G12V); assay: Ras-Raf (BRAF RBD) disruption / FRET / MOA assay, KRAS G12V; type: biochemical; settings: read-out: IC50* KRAS G12V FRET data
KRAS G12V, sequence (P01116-2 other isoform, or with tags, fused parts or gaps G12V): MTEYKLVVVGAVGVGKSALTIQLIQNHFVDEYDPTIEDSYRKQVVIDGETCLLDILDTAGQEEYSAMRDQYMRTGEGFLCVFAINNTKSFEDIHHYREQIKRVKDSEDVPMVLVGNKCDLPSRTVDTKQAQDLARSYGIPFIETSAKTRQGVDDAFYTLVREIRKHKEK
KRAS G12V, sequence (P62937 whole entry): as the sequence (P62937 whole entry) above
Procedure, shortened: as §1

KRAS G12D = KRAS G12D (Homo sapiens (Human), UniProt P01116+P62937, G12D); assay: Ras-Raf (BRAF RBD) disruption / FRET / MOA assay, KRAS G12D; type: biochemical; settings: Ras-Raf disruption/FRET/MOA assay; class symbols; read-out: KRAS G12D FRET data IC50
KRAS G12D, sequence (P01116-2 other isoform, or with tags, fused parts or gaps G12D): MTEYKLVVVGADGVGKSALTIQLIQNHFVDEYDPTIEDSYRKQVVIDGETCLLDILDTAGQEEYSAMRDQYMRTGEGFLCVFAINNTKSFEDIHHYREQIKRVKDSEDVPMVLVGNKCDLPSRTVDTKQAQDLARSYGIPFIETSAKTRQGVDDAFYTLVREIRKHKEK
KRAS G12D, sequence (P62937 whole entry): as the sequence (P62937 whole entry) above
Procedure, shortened: as §1

NRAS Q61R = NRAS Q61R (Homo sapiens (Human), UniProt P01111+P62937, Q61R); assay: Ras-Raf (BRAF RBD) disruption / FRET / MOA assay, NRAS Q61R; type: biochemical; settings: NRAS Q61R; Ras-Raf disruption/FRET/MOA assay; read-out: IC50* NRAS Q61R FRET data
NRAS Q61R, sequence (P01111 whole entry Q61R): as the sequence (P01111 whole entry G12C) above, with C12G, Q61R counted along it
NRAS Q61R, sequence (P62937 whole entry): as the sequence (P62937 whole entry) above
Experimental: as §2, §3, §4, §5
as §3, with “Compound was” for “Compound is”, “allophycocyanin was” for “allophycocyanin is”, “a K-Ras:RAF” for “a Ras:RAF”, “complex were” for “complex are”

KRAS WT = KRAS WT (Homo sapiens (Human), UniProt P01116+P62937); assay: Ras-Raf (BRAF RBD) disruption / FRET / MOA assay, KRAS WT; type: biochemical; settings: read-out: IC50* KRAS WT FRET data
KRAS WT, sequence (P01116-2 other isoform, or with tags, fused parts or gaps): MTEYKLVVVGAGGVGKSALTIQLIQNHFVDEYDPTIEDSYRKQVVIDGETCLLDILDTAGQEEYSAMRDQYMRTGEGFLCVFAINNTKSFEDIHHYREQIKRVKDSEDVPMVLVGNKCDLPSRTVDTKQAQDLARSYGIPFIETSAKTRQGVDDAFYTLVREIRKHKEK
KRAS WT, sequence (P62937 whole entry): as the sequence (P62937 whole entry) above
Procedure, shortened: as §1

K-Ras G12C = K-Ras G12C (Homo sapiens (Human), UniProt P01116+P62937, G12C); assay: Ras-Raf (BRAF RBD) disruption / FRET / MOA assay, KRAS G12C; type: biochemical; settings: KRAS G12C; Ras-Raf disruption/FRET/MOA assay; read-out: IC50* KRAS G12C FRET data
K-Ras G12C, sequence (P01116-2 other isoform, or with tags, fused parts or gaps G12C): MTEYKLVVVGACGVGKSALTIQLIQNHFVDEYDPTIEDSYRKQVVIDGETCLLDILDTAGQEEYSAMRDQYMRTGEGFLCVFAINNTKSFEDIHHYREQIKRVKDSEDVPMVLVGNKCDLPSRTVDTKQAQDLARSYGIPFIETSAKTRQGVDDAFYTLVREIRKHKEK
K-Ras G12C, sequence (P62937 whole entry): as the sequence (P62937 whole entry) above
Procedure, shortened: as §1

KRAS G12S = KRAS G12S (Homo sapiens (Human), UniProt P01116+P62937, G12S); assay: Ras-Raf (BRAF RBD) disruption / FRET / MOA assay, KRAS G12S; type: biochemical; settings: Ras-Raf disruption/FRET/MOA assay; class symbols; read-out: KRAS G12S FRET data IC50
KRAS G12S, sequence (P01116-2 other isoform, or with tags, fused parts or gaps G12S): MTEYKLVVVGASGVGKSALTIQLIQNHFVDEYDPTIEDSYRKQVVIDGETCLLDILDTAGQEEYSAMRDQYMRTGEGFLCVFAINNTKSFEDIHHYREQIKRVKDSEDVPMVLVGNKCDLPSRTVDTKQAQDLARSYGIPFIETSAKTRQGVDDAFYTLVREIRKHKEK
KRAS G12S, sequence (P62937 whole entry): as the sequence (P62937 whole entry) above
Procedure, shortened: as §1

NRAS WT = NRAS WT (Homo sapiens (Human), UniProt P01111+P62937); assay: Ras-Raf (BRAF RBD) disruption / FRET / MOA assay, NRAS WT; type: biochemical; settings: read-out: IC50* NRAS WT FRET data
NRAS WT, sequence (P01111 whole entry): as the sequence (P01111 whole entry G12C) above, with C12G counted along it
NRAS WT, sequence (P62937 whole entry): as the sequence (P62937 whole entry) above
Experimental: as §2, §3, §4, §5
as §3, with “Compound was” for “Compound is”, “allophycocyanin was” for “allophycocyanin is”, “a K-Ras:RAF” for “a Ras:RAF”, “complex were” for “complex are”

[2] = NCI-H358, H358 KRAS G12C, read-out: pERK EC50

KRAS Q61H, sequence (P01116-2 other isoform, or with tags, fused parts or gaps Q61H): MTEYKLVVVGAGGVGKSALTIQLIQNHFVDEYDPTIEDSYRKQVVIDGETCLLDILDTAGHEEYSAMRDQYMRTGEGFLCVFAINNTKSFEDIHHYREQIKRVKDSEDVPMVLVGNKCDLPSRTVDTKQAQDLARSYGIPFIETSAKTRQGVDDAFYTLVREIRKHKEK
KRAS Q61H, sequence (P62937 whole entry): as the sequence (P62937 whole entry) above

Structure (SMILES)	IC50 (KRAS Q61H)	EC50 [1, 2]	IC50 (KRAS G13D)	IC50 (K-Ras G13C)	IC50 (NRAS G12C)	IC50 (NRAS Q61K)	IC50 (KRAS G12V)	IC50 (KRAS G12D)	IC50 (NRAS Q61R)	IC50 (KRAS WT)	IC50 (K-Ras G12C)	IC50 (KRAS G12S)	IC50 (NRAS WT)	EC50 ([1]; NCI-H358, read-out: pERK EC50)
CO[C@@H](C)c1ncccc1-c1c2c3cc(ccc3n1CC(F)(F)F)-c1nc(nn1C)C[C@H](NC(=O)[C@H](C(C)C)N(C)C(=O)C1(F)CCN(C(=O)C#CC(C)(C)N(C)C)CC1)C(=O)N1CCC[C@H](N1)C(=O)OCC(C)(C)C2 (atropisomer, axis not shown) [Example A577]	10 to 100 nM	< 5000 nM	100 to 1000 nM	10 to 100 nM	< 10 nM	10 to 100 nM	100 to 1000 nM	100 to 1000 nM	10 to 100 nM	100 to 1000 nM	< 10 nM	10 to 100 nM	10 to 100 nM	
C=CC(=O)N1CCO[C@@H]2CCN(C(=O)N(C)[C@H](C(=O)N[C@H]3Cc4nc(cs4)-c4ccc5c(c4)c(c(-c4cccnc4[C@H](C)OC)n5CC)CC(C)(C)COC(=O)[C@@H]4CCCN(N4)C3=O)C(C)C)C[C@@H]21 (atropisomer, axis not shown) [Example A581]	100 to 1000 nM	< 5000 nM	100 to 1000 nM	100 to 1000 nM	10 to 100 nM	100 to 1000 nM	100 to 1000 nM	1000 to 10000 nM	100 to 1000 nM	100 to 1000 nM	10 to 100 nM	100 to 1000 nM	100 to 1000 nM	
CCn1c(-c2cccnc2[C@H](C)OC)c2c3cc(ccc31)-c1cccc(c1)C[C@H](NC(=O)[C@H](C(C)C)N1CC[C@]3(CCN(C(=O)C#C[C@H]4COCCN4C)C3)C1=O)C(=O)N1CCC[C@H](N1)C(=O)OCC(C)(C)C2 (atropisomer, axis not shown) [Example A592]	1000 to 10000 nM		> 10000 nM	1000 to 10000 nM	10 to 100 nM	> 10000 nM	1000 to 10000 nM	> 10000 nM	> 10000 nM	> 10000 nM	10 to 100 nM	1000 to 10000 nM	> 10000 nM	< 5000 nM
C=CC(=O)N1CCO[C@H]2CCN(C(=O)N(C)[C@H](C(=O)N[C@H]3Cc4nc(cs4)-c4ccc5c(c4)c(c(-c4cccnc4[C@H](C)OC)n5CC)CC(C)(C)COC(=O)[C@@H]4CCCN(N4)C3=O)C(C)C)C[C@@H]21 (atropisomer, axis not shown) [Example A609]	10 to 100 nM	< 5000 nM	100 to 1000 nM	10 to 100 nM	< 10 nM	10 to 100 nM	10 to 100 nM	100 to 1000 nM	10 to 100 nM	10 to 100 nM	< 10 nM	10 to 100 nM	10 to 100 nM	
CCn1c(-c2cccnc2[C@H](C)OC)c2c3cc(ccc31)N1CCO[C@@H](C[C@H](NC(=O)[C@H](C(C)C)N3CC[C@@]4(CCN(C(=O)C#CC(C)(C)N(C)C)C4)C3=O)C(=O)N3CCC[C@H](N3)C(=O)OCC(C)(C)C2)C1 (atropisomer, axis not shown) [Example A614]	> 10000 nM	< 5000 nM	> 10000 nM	1000 to 10000 nM	10 to 100 nM	> 10000 nM	> 10000 nM	> 10000 nM	> 10000 nM	> 10000 nM	10 to 100 nM	> 10000 nM	> 10000 nM	
CCn1c(-c2cccnc2[C@H](C)OC)c2c3cc(ccc31)-c1cccc(c1)C[C@H](NC(=O)[C@H](C(C)C)N(C)C(=O)C1(F)CCN(C(=O)C#CC(C)(C)N(C)C)CC1)C(=O)N1CCC[C@H](N1)C(=O)OCC(C)(C)C2 (atropisomer, axis not shown) [Example A699]	100 to 1000 nM	< 5000 nM	100 to 1000 nM	10 to 100 nM	< 10 nM	100 to 1000 nM	100 to 1000 nM	1000 to 10000 nM	100 to 1000 nM	100 to 1000 nM	< 10 nM	100 to 1000 nM	100 to 1000 nM	
